Laboratory results reported in US9802895B2, “Indole and benzimidazolecarboxamides as insecticides and acaricides” (BAYER CROPSCIENCE AKTIENGESELLSCHAFT, priority 2014, dated 2017).

Tests used:
[1] = system: L1 larvae of the Australian sheep blowfly (Lucilia cuprina); assay: Lucilia cuprina test (LUCICU); assay type: in vivo; conditions: 100 ppm, after 2 days
Protocol: Lucilia cuprina Test (LUCICU) Solvent: dimethyl sulphoxide To produce a suitable active compound formulation, 10 mg of active compound are mixed with 0.5 ml of dimethyl sulphoxide, and the concentrate is diluted with water to the desired concentration. About 20 L1 larvae of the Australian sheep blowfly (Lucilia cuprina) are transferred into a test vessel containing minced horsemeat and the active compound preparation of the desired concentration. After 2 days, the kill in % is determined 100% means that all the larvae have been killed; 0% means that none of the larvae have been killed.

[2] = system: greenhouse red spider mite (Tetranychus urticae); assay: Tetranychus urticae spray test, OP-resistant (TETRUR); assay type: in vivo; conditions: 100 g/ha, spray, after 6 days
Protocol: Tetranychus urticae—Spray Test, OP-Resistant (TETRUR)
(§1) Solvent: 78.0 parts by weight of acetone • • 1.5 parts by weight of dimethylformamide
(§2) Emulsifier: alkylaryl polyglycol ether
(§3) To produce a suitable active compound formulation, 1 part by weight of active compound is dissolved using the specified parts by weight of solvent and made up with water containing an emulsifier concentration of 1000 ppm until the desired concentration is attained. To produce further test concentrations, the preparation is diluted with emulsifier-containing water.
Discs of bean leaves (Phaseolus vulgaris) infested by all stages of the greenhouse red spider mite (Tetranychus urticae) are sprayed with an active compound formulation of the desired concentration.
After 6 days, the efficacy in % is determined 100% means that all the spider mites have been killed; 0% means that none of the spider mites have been killed.
Tetranychus urticae—Spray Test; OP-Resistant (TETRUR)
After the desired period of time, the efficacy in % is determined 100% means that all the spider mites have been killed; 0% means that none of the spider mites have been killed.

[3] = system: engorged adult female cattle ticks (Boophilus microplus); assay: Boophilus microplus injection test (BOOPMI inj); assay type: in vivo; conditions: assessed after 7 days
Protocol: Boophilus microplus Injection Test (BOOPMI inj) Solvent: dimethyl sulphoxide To produce a suitable active compound formulation, 10 mg of active compound are mixed with 0.5 ml of solvent and the concentrate is diluted with solvent to the desired concentration. 1 μl of the active compound solution is injected into the abdomen of 5 engorged adult female cattle ticks (Boophilus microplus). The animals are transferred into dishes and kept in a climate-controlled room. The efficacy is assessed after 7 days by laying of fertile eggs. Eggs which are not visibly fertile are stored in a climate-controlled cabinet until the larvae hatch after about 42 days. An efficacy of 100% means that none of the ticks has laid any fertile eggs; 0% means that all the eggs are fertile.

[4] = system: caterpillars of the armyworm (Spodoptera frugiperda); assay: Spodoptera frugiperda spray test (SPODFR); assay type: in vivo; conditions: for efficacy: 100 g/ha, spray, after 7 days
Protocol: Spodoptera frugiperda—Spray Test (SPODFR) Solvent: 78.0 parts by weight of acetone • • 1.5 parts by weight of dimethylformamide Emulsifier: alkylaryl polyglycol ether To produce a suitable active compound formulation, 1 part by weight of active compound is dissolved using the specified parts by weight of solvent and made up with water containing an emulsifier concentration of 1000 ppm until the desired concentration is attained. To produce further test concentrations, the preparation is diluted with emulsifier-containing water. Leaf discs of maize (Zea mays) are sprayed with an active compound formulation of the desired concentration and, after drying, populated with caterpillars of the armyworm (Spodoptera frugiperda). After 7 days, the efficacy in % is determined 100% means that all the caterpillars have been killed; 0% means that no caterpillars have been killed. Spodoptera frugiperda—Spray Test (SPODFR) Solvent: 78.0 parts by weight of acetone • • 1.5 parts by weight of dimethylformamide Emulsifier: alkylaryl polyglycol ether To produce a suitable active compound formulation, 1 part by weight of active compound is dissolved using the specified parts by weight of solvent and made up with water containing an emulsifier concentration of 1000 ppm until the desired concentration is attained. To produce further test concentrations, the preparation is diluted with emulsifier-containing water. Leaf discs of maize (Zea mays) are sprayed with an active compound formulation of the desired concentration and, after drying, populated with caterpillars of the armyworm (Spodoptera frugiperda). After the desired period of time, the efficacy in % is determined. 100% means that all the caterpillars have been killed; 0% means that no caterpillars have been killed.

[5] = system: larvae of the mustard beetle (Phaedon cochleariae); assay: Phaedon cochleariae spray test (PHAECO); assay type: in vivo; conditions: after 7 days
Protocol: Phaedon cochleariae—Spray Test (PHAECO)
as §1, §2, §3
After 7 days, the efficacy in % is determined. 100% means that all the beetle larvae have been killed; 0% means that no beetle larvae have been killed.

[6] = system: adult cat fleas (Ctenocephalides felis); assay: Ctenocephalides felis oral test (CTECFE); assay type: in vivo; conditions: 100 ppm, oral in cattle blood, after 2 days
Protocol: Ctenocephalides felis-Oral Test ([…]) Solvent: dimethyl sulphoxide To produce a suitable active compound formulation, 10 mg of active compound are mixed with 0.5 ml of dimethyl sulphoxide. Dilution with citrated cattle blood gives the desired concentration. About 20 unfed adult cat fleas (Ctenocephalides felis) are placed into a chamber which is closed at the top and bottom with gauze. A metal cylinder whose bottom end is closed with parafilm is placed onto the chamber. The cylinder contains the blood/active compound preparation, which can be imbibed by the fleas through the parafilm membrane. After 2 days, the kill in % is determined 100% means that all of the fleas have been killed; 0% means that none of the fleas have been killed.

[7] = log P by HPLC (EEC directive 79/831 Annex V.A8); assay type: physicochemical; conditions: 43° C., acidic range pH 2.7; for log P: HPLC, reversed-phase column (C18)
Protocol: a) The determination of the M^+ by LC-MS in the acidic range is effected at pH 2.7, acetonitrile (contains 0.1% formic acid) and water as eluents; linear gradient from 10% acetonitrile to 95% acetonitrile, instrument: Agilent 1100 LC system, Agilent MSD system, HTS PAL. The log P values reported in the tables and Preparation Examples above were determined in accordance with EEC directive 79/831 Annex V.A8 by HPLC (High Performance Liquid Chromatography) using a reversed-phase column (C18). Temperature 43° C. The calibration is effected with unbranched alkan-2-ones (having 3 to 16 carbon atoms), for which the logP values are known.

[8] = system: adult houseflies (Musca domestica); assay: Musca domestica test (MUSCDO); assay type: in vivo; conditions: 100 ppm, after 2 days
Protocol: Musca domestica Test (MUSCDO) Solvent: dimethyl sulphoxide To produce a suitable active compound formulation, 10 mg of active compound are mixed with 0.5 ml of dimethyl sulphoxide, and the concentrate is diluted with water to the desired concentration. Vessels containing a sponge treated with sugar solution and the active compound preparation of the desired concentration are populated with 10 adult houseflies (Musca domestica). After 2 days, the kill in % is determined. 100% means that all of the flies have been killed; 0% means that none of the flies have been killed.

CCn1c(C(=O)NC(c2cc(Cl)c(F)c(Cl)c2F)C(F)(F)F)cc2cc(C(=O)NC3(C(N)=S)CC3)c(Cl)cc21 (centres unmarked) [I-01, N5-(1-Carbamothioylcyclopropyl)-6-chloro-N2-[1-(3,5-dichloro-2,4-difluorophenyl)-2,2,2-trifluoroethyl]-1-ethylindole-2,5-dicarboxamide]
100%: efficacy (kill in %) [1] | efficacy [2] | efficacy (laying of fertile eggs) [3] | efficacy [4] | % efficacy (mortality) at a single application rate at 0.8 g/ha ([4]; Spodoptera frugiperda, 168 h, SPODFR, 0.8 g/ha, 7 dat) | % efficacy (mortality) at a single application rate at 4 g/ha ([4]; Spodoptera frugiperda, 168 h, SPODFR, 4 g/ha, 7 dat) | efficacy ([5]; 100 g/ha) | efficacy (kill in %) [6] | efficacy (kill in %) [8]
4.25: chromatographic logP ([7]; reversed-phase C18 HPLC column, pH 2.7, HPLC)

CCn1c(C(=O)NC(c2cc(Cl)c(F)c(Cl)c2F)C(F)(F)F)cc2cc(C(=O)NC3(C(N)=S)CC3)c(Cl)cc21 (single isomer, unassigned) [I-18]
4.27;: log P [7]
100%: efficacy (kill in %) [1] | efficacy [2] | efficacy (laying of fertile eggs) [3] | efficacy [4] | % efficacy ([4]; SPODFR, 0.8 g/ha, 7 dat) | % efficacy ([4]; SPODFR, 4 g/ha, 7 dat) | efficacy ([5]; 100 g/ha) | efficacy (kill in %) [6] | efficacy (kill in %) [8]

CCn1c(C(=O)NC(c2ccc(Cl)c(C(F)(F)F)c2)C(F)(F)F)cc2cc(C(=O)NC3(C(N)=S)CC3)c(Cl)cc21 (centres unmarked) [I-07]
3.96: log P [7]
67%: % efficacy ([4]; SPODFR, 0.8 g/ha, 7 dat)
100%: efficacy (kill in %) [1] | efficacy [2] | efficacy (laying of fertile eggs) [3] | efficacy [4] | % efficacy ([4]; SPODFR, 4 g/ha, 7 dat) | efficacy ([5]; 100 g/ha) | efficacy (kill in %) [6] | efficacy (kill in %) [8]

CCn1c(C(=O)NC(c2cc(Cl)c(Cl)c(Cl)c2)C(F)(F)F)cc2cc(C(=O)NC3(C(N)=S)CC3)c(Cl)cc21 (centres unmarked) [I-05]
100%: efficacy (kill in %) [1] | efficacy (laying of fertile eggs) [3] | efficacy [4] | efficacy ([5]; 100 g/ha) | efficacy (kill in %) [6] | efficacy (kill in %) [8]
4.33: log P [7]
90%: efficacy [2]

Cn1c(C(=O)NC(c2cc(Cl)c(F)c(Cl)c2)C(F)(F)F)cc2cc(C(=O)NC3(C(N)=S)CC3)c(Cl)cc21 (centres unmarked) [I-15]
90%: efficacy [2]
100%: efficacy [4] | % efficacy ([4]; SPODFR, 4 g/ha, 7 dat) | efficacy ([5]; 20 g/ha)
83%: % efficacy ([4]; SPODFR, 0.8 g/ha, 7 dat)
3.76: log P [7]

CCn1c(C(=O)NC(c2ccc(Cl)c(C(F)(F)F)c2)C(F)(F)F)cc2cc(C(=O)NC3(C(N)=S)CC3)c(C)cc21 (centres unmarked) [I-13]
3.89: log P [7]
100%: efficacy (kill in %) [1] | efficacy [2] | efficacy (laying of fertile eggs) [3] | efficacy [4] | efficacy ([5]; 100 g/ha) | efficacy (kill in %) [6] | efficacy (kill in %) [8]

CCn1c(C(=O)NC(c2cc(F)cc(F)c2)C(F)F)cc2cc(C(=O)NC3(C(N)=S)CC3)c(Cl)cc21 (centres unmarked) [I-23]
3.07: log P [7]
90%: efficacy (kill in %) [1]
83%: efficacy [4]
100%: efficacy [2] | efficacy (laying of fertile eggs) [3] | efficacy ([5]; 100 g/ha) | efficacy (kill in %) [6]

C#CCn1c(C(=O)NC(c2cc(Cl)c(Cl)c(Cl)c2)C(F)(F)F)cc2cc(C(=O)NC3(C(N)=S)CC3)c(Cl)cc21 (centres unmarked) [I-21]
4.09: log P [7]
100%: efficacy [2] | efficacy [4] | % efficacy ([4]; SPODFR, 0.8 g/ha, 7 dat) | % efficacy ([4]; SPODFR, 4 g/ha, 7 dat) | efficacy ([5]; 100 g/ha)

C#CCn1c(C(=O)NC(c2cc(Cl)c(F)c(Cl)c2)C(F)(F)F)cc2cc(C(=O)NC3(C(N)=S)CC3)c(Cl)cc21 (centres unmarked) [I-14]
3.81: log P [7]
100%: efficacy [2] | efficacy [4] | efficacy ([5]; 100 g/ha)

CCn1c(C(=O)NC(c2cccc(Cl)c2F)C(F)(F)F)cc2cc(C(=O)NC3(C(N)=S)CC3)c(Cl)cc21 (centres unmarked) [I-11]
3.69: log P [7]
100%: efficacy [2] | efficacy (laying of fertile eggs) [3] | efficacy [4] | efficacy ([5]; 100 g/ha) | efficacy (kill in %) [6]

C#CCn1c(C(=O)NC(c2cc(Cl)c(F)c(Cl)c2F)C(F)(F)F)cc2cc(C(=O)NC3(C(N)=S)CC3)c(Cl)cc21 (centres unmarked) [I-12]
100%: efficacy (kill in %) [1] | efficacy (laying of fertile eggs) [3] | efficacy [4] | % efficacy ([4]; SPODFR, 0.8 g/ha, 7 dat) | % efficacy ([4]; SPODFR, 4 g/ha, 7 dat) | efficacy ([5]; 100 g/ha) | efficacy (kill in %) [6] | efficacy (kill in %) [8]
3.94: log P [7]

CCn1c(C(=O)NC(c2ccc(F)c(Br)c2)C(F)(F)F)cc2cc(C(=O)NC3(C(N)=S)CC3)c(Cl)cc21 (centres unmarked) [I-06]
100%: efficacy [2] | efficacy [4] | % efficacy ([4]; SPODFR, 0.8 g/ha, 7 dat) | % efficacy ([4]; SPODFR, 4 g/ha, 7 dat) | efficacy ([5]; 100 g/ha)
3.64: log P [7]

CCn1c(C(=O)NC(c2cc(Cl)c(F)c(Cl)c2F)C(F)F)cc2cc(C(=O)NC3(C(N)=S)CC3)c(Cl)cc21 (centres unmarked) [I-28]
3.90: log P [7]
100%: efficacy [2] | efficacy [4] | efficacy ([5]; 100 g/ha)

Cn1c(C(=O)NC(c2cc(Cl)c(F)c(Cl)c2F)C(F)(F)F)cc2cc(C(=O)NC3(C(N)=S)CC3)c(Cl)cc21 (centres unmarked) [I-08]
100%: efficacy (kill in %) [1] | efficacy [2] | efficacy (laying of fertile eggs) [3] | efficacy [4] | % efficacy ([4]; SPODFR, 0.8 g/ha, 7 dat) | % efficacy ([4]; SPODFR, 4 g/ha, 7 dat) | efficacy ([5]; 100 g/ha) | efficacy (kill in %) [6]
3.94: log P [7]

CCn1c(C(=O)NC(c2ccc(Cl)c(Cl)c2)C(F)F)cc2cc(C(=O)NC3(C(N)=S)CC3)c(Cl)cc21 (centres unmarked) [I-25]
100%: efficacy (kill in %) [1] | efficacy [2] | efficacy (laying of fertile eggs) [3] | efficacy [4] | efficacy ([5]; 100 g/ha) | efficacy (kill in %) [6]
3.54: log P [7]
